Drawing on PubChem BioAssay AID754 (Emory University Molecular Libraries Screening Center, 2007), this text covers IC50 for 79 compounds.

pIC50: −log10 of the molar value. Activity calls are given as the source filed them.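 How the source made its calls: active means IC50 for lowering Her2 protein in breast cancer cells at or below a set limit; inactive means IC50 above that limit.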

The subject of one experiment is SKBr3 Her2 cytoblot, chemiluminescence, 24 h. The experiment is described as follows: Her2 protein loss in SKBr3 cells, dose response, mechanism study for Hsp90 inhibitor project, cell-based, cytoblot, chemiluminescence (AID 754). The conditions noted are these: top dose 10 µM.
As for `CC(C)NCCCCCNc1cc(O)cc2cccnc12`, the IC50 is > 10 µM (inactive). Turning to `Nc1cc(N)c2cccnc2c1O`, the IC50 was > 10 µM (inactive).

Turning to `CCC(C)NCCNc1cc(OC)cc2cccnc12` (stereo not given), the IC50 was > 10 µM (inactive).

Regarding `O=[N+]([O-])c1cc(O)cc2cccnc12`, the IC50 was > 10 µM (inactive). Same read-out and setting: the result for `CC(C)NCCCC(C)Nc1cc(O)cc2cccnc12` (stereo not given) reads > 10 µM (inactive); that for `NCCCCCNc1cc(O)cc2cccnc12`, > 10 µM (inactive). `CC(CCN(C)C)Nc1cc(O)cc2cccnc12` (stereo not given): the IC50 was > 10 µM (inactive). The same measure, in the same setting: the result for `Nc1cc2ccccc2c(O)c1O` reads > 10 µM (inactive). With `CCN(CC)CCCC(C)Nc1cc(O)cc2cccnc12` (stereo not given), the IC50 is > 10 µM (inactive). For the compound `Nc1ccc(O)c2ncccc12`, the IC50 was > 10 µM (inactive). On to `Nc1cc(O)cc2cccnc12`, for which the pIC50 is > 6.20.

For the compound `Nc1cc2c(c(O)c1O)C(=O)c1ccccc1C2=O`, the IC50 was > 10 µM (inactive). On to `CCN(CC)CCCNc1cc(OC)c(Nc2ccccc2)c2cccnc12`, for which the IC50 was > 10 µM (inactive).

Staying with this experiment, now noted: top dose 30 µM.
As to `CCn1nc(-c2cccs2)nc2c(=O)n(C)c(=O)nc1-2`, the negative-log IC50 (pIC50) was > 5.73.

Regarding `C[C@H]1CCCC(=O)CCCCCc2cc(O)cc(O)c2C(=O)O1`, the IC50 was > 30 µM (inactive). On to `CCn1nc(-c2ccccc2)nc2c(=O)n(C)c(=O)nc1-2`, for which the negative-log IC50 (pIC50) was 5.56. As to `N#Cc1c(N2CCCC2)nc(N)c2c(N)nc(N3CCCC3)cc12`, the IC50 was > 30 µM (inactive).

For the compound `Oc1ccc(-c2nc(-c3ccc(O)c(O)c3)cs2)cc1`, the IC50 is > 30 µM (inactive).

As for `CC(Cc1ccc(O)c(O)c1)C(C)Cc1ccc(O)c(O)c1` (stereo not given), the IC50 is > 30 µM (inactive). In the case of `CCc1cc(-c2[nH]ncc2-c2ccc3c(c2)OCO3)c(O)cc1O`, the IC50 was > 30 µM (inactive).

For `COc1cccc2c1C(=O)c1c(O)c3c(c(O)c1C2=O)C[C@@](O)(C(C)=O)C[C@@H]3O[C@H]1C[C@H](N)[C@H](O)[C@H](C)O1`, the pIC50 was 4.53. On to `Cc1c(-c2nn(C)c(=O)c3ccccc23)oc2ccc(F)cc2c1=O`, for which the IC50 is > 30 µM (inactive). As to `CCn1c(CSc2nnc(-c3cccnc3)n2-c2ccccc2C)nc2cc(C(=O)O)ccc21`, the pIC50 is 5.50. As to `Cn1ncnc2c(=O)n(C)c(=O)nc1-2`, the negative logarithm of the IC50 (pIC50) was > 5.73.

Regarding `CCn1c(CSc2nnc3ccccn23)nc2cc(C(=O)O)ccc21`, the IC50 is > 30 µM (inactive). Consider `O=C1c2ccccc2-c2onc3ccc(NCCCn4ccnc4)c1c23`, for which the IC50 was > 30 µM (inactive). Consider `C[C@H]1CCC[C@H](O)CCCCCc2cc(O)cc(O)c2C(=O)O1`, for which the negative-log IC50 (pIC50) is 4.55.

On to `COc1cccc2c1C(=O)c1c(O)c3c(c(O)c1C2=O)C[C@@](O)(C(=O)CO)C[C@@H]3O[C@H]1C[C@H](N)[C@H](O)[C@H](C)O1`, for which the IC50 is > 30 µM (inactive).

The experiment is the same for the next values; noted with them: top dose 50 µM.
Consider `COc1cc(NC(C)CCCNC(C)C)c2ncccc2c1OC` (stereo not given), for which the IC50 is > 50 µM (inactive).

As for `N#Cc1cc(S(=O)(=O)Nc2ccc(F)c(-c3c(O)ccc4c3OCO4)c2)ccc1F`, the IC50 was > 50 µM (inactive). For `CCN(CC)CCCNc1cc(OC)cc2ccc(OC)nc12`, the IC50 was > 50 µM (inactive). As for `COc1cc(NCCCC(C)N)c2nccc(Cl)c2c1` (stereo not given), the IC50 was > 50 µM (inactive). In the case of `CCCC(C)N(CC)CCNc1cc(OC)cc2cccnc12` (stereo not given), the IC50 was > 50 µM (inactive). Consider `Cc1[nH]c2c(N)cccc2c1C`, for which the IC50 is > 50 µM (inactive). For `COc1cc(NCC(O)CN(CC(C)C)CC(C)C)c2nc(C)ccc2c1` (stereo not given), the IC50 is > 50 µM (inactive). Take `COc1ccc(Oc2c(OC)cc(NCCCCCNC(C)C)c3ncccc23)cc1`: the IC50 is > 50 µM (inactive). Take `COc1cc(NCCCN(CC(C)C)CC(C)C)c2ncccc2c1Cl`: the IC50 was > 50 µM (inactive). Consider `Nc1ccc(O)c2ncccc12`, for which the IC50 is > 50 µM (inactive).

On to `Nc1cccc2cc(O)ccc12`, for which the IC50 is > 50 µM (inactive). Regarding `COc1cc(NC(C)CCCNC(C)C)c2ncccc2c1` (stereo not given), the IC50 was > 50 µM (inactive).

Consider `CCC(CC)NCCCNc1cc(OC)cc2cccnc12`, for which the IC50 was > 50 µM (inactive). Regarding `COc1cc(NC(C)CCCN)c2ncccc2c1` (stereo not given), the IC50 is > 50 µM (inactive). Consider `COc1cc(NCCN(CC(C)C)CC(C)C)c2ncccc2c1`, for which the IC50 is > 50 µM (inactive).

For `CCN(CC)CC(O)c1ccnc2c(O)cccc12` (stereo not given), the IC50 is > 50 µM (inactive). On the same count and under the same terms, the result for `O=[N+]([O-])c1cc(S(=O)(=O)Nc2ccc(F)c(-c3c(O)ccc4c3OCO4)c2)ccc1Cl` reads > 50 µM (inactive). For `Nc1ccc(Nc2nc3ccccc3s2)c(O)c1`, the IC50 is > 50 µM (inactive). Regarding `COc1cc(NS(=O)(=O)c2ccc([N+](=O)[O-])cc2[N+](=O)[O-])c2ncccc2c1`, the IC50 was > 50 µM (inactive). Still for that read-out and setting: the result for `Cc1ccc(S(=O)(=O)Nc2ccc(F)c(-c3c(O)ccc4c3OCO4)c2)cc1` reads > 50 µM (inactive); that for `COc1cc(NCCCCN)c2ncccc2c1`, > 50 µM (inactive); that for `COc1cc(N)c2ncccc2c1`, > 50 µM (inactive).

The experiment is the same for the next values; noted with them: top dose 60 µM.
Regarding `NCc1cc(S(=O)(=O)Nc2cc(O)cc3cccnc23)ccc1F`, the pIC50 was 4.79. With `Nc1ccc(NS(=O)(=O)c2cc(Cl)ccc2Cl)cc1-c1ccccc1O`, the IC50 was > 60 µM (inactive).

Take `COc1ccc2c(c1-c1cc(NS(=O)(=O)c3cccc([N+](=O)[O-])c3)ccc1N)OCO2`: the IC50 was > 60 µM (inactive). For `O=S(=O)(Nc1ccc(Cl)cc1O)c1ccccc1`, the IC50 was > 60 µM (inactive). The same measure, in the same setting: the result for `Nc1ccc(NS(=O)(=O)c2cccc([N+](=O)[O-])c2)cc1-c1ccccc1O` reads > 60 µM (inactive). Consider `CC(C)(C)OC(=O)Nc1cccc(NS(=O)(=O)c2cc(Cl)ccc2Cl)c1-c1ccccc1O`, for which the IC50 is 48.2 µM (inactive).

For the compound `Cc1ccc(S(=O)(=O)Nc2ccc(N)c(-c3ccccc3O)c2)cc1`, the IC50 was > 60 µM (inactive). In the case of `Nc1ccc(NS(=O)(=O)c2ccccc2[N+](=O)[O-])cc1-c1ccccc1O`, the IC50 was > 60 µM (inactive). Regarding `COc1ccc(C2CC(c3ccccc3O)=NN2)cc1OC` (stereo not given), the IC50 was 52.3 µM (inactive). In the case of `CCOc1ccc2ccccc2c1-c1cc(NS(=O)(=O)c2ccc(C)cc2)ccc1N`, the IC50 is > 60 µM (inactive). The same measure, in the same setting: the result for `COc1ccc2c(c1-c1cc(NS(=O)(=O)c3cc(Cl)ccc3Cl)ccc1N)OCO2` reads > 60 µM (inactive). For the compound `COc1ccc(S(=O)(=O)Nc2ccc(N)c(-c3ccccc3O)c2)cc1OC`, the IC50 is > 60 µM (inactive). For the compound `CCOc1ccc2ccccc2c1-c1cc(NS(=O)(=O)c2cc(Cl)ccc2Cl)ccc1NC(=O)OC(C)(C)C`, the IC50 is > 60 µM (inactive). Turning to `O=S(=O)(Nc1ccc(O)c(-c2ccccc2O)c1)c1cc(Cl)ccc1Cl`, the IC50 was > 60 µM (inactive).

Take `COc1ccc(S(=O)(=O)Nc2ccc(O)c(-c3ccccc3O)c2)cc1OC`: the IC50 is > 60 µM (inactive). `COc1cc(C2CC(c3ccccc3O)=NN2)ccc1O` (stereo not given): the IC50 is 51 µM (inactive). Consider `O=[N+]([O-])c1ccc(NS(=O)(=O)c2ccccc2)c(O)c1`, for which the IC50 was > 60 µM (inactive).

On to `COc1ccc2c(c1-c1cc(NS(=O)(=O)c3ccc(C)cc3)ccc1N)OCO2`, for which the IC50 was > 60 µM (inactive).

For `O=[N+]([O-])c1cccc(S(=O)(=O)Nc2ccc(O)c(-c3ccccc3O)c2)c1`, the IC50 was > 60 µM (inactive). `Nc1ccc(NS(=O)(=O)c2ccccc2N)cc1-c1ccccc1O`: the IC50 was > 60 µM (inactive). As to `COc1ccc(NS(=O)(=O)c2ccccc2)c(OC)c1`, the IC50 is > 60 µM (inactive). Take `Nc1ccc(NS(=O)(=O)c2ccccc2)c(O)c1`: the IC50 was > 60 µM (inactive). Take `N#Cc1cc(S(=O)(=O)Nc2cc(O)cc3cccnc23)ccc1F`: the IC50 is 33.8 µM (inactive).

In the case of `CCOc1ccc2ccccc2c1-c1cc(NS(=O)(=O)c2ccc(OC)c(OC)c2)ccc1N`, the IC50 is > 60 µM (inactive). As for `Nc1cccc(S(=O)(=O)Nc2ccc(O)c(-c3ccccc3O)c2)c1`, the IC50 is > 60 µM (inactive).

As for `O=S(=O)(Nc1cc(O)cc2cccnc12)c1ccc(F)cc1`, the IC50 is > 60 µM (inactive). On to `Cc1ccc(S(=O)(=O)Nc2ccc(O)c(-c3ccccc3O)c2)cc1`, for which the IC50 was > 60 µM (inactive). As to `CCOc1ccc2ccccc2c1-c1cc(NS(=O)(=O)c2cc(Cl)ccc2Cl)ccc1N`, the IC50 is > 60 µM (inactive).

As for `COc1ccc2c(c1-c1cc(NS(=O)(=O)c3cccc(N)c3)ccc1N)OCO2`, the IC50 was > 60 µM (inactive). Consider `Nc1cccc(S(=O)(=O)Nc2ccc(N)c(-c3ccccc3O)c2)c1`, for which the IC50 is > 60 µM (inactive).

The IC50 is the point on the concentration scale where inhibition reaches its midpoint. What is called pIC50 is −log10 of the IC50, conventionally taken in molar units.
